In US12421211B2, “Heterocyclic compounds” (Hoffmann-La Roche Inc., priority 2021, dated 2025):
In brackets after ≈: the same amount, converted by molar mass. Counter-ions that a name gives are not always drawn. Like-named read-outs stand apart in the source and are kept apart here.

Columns and labels:
[1] = system: Acinetobacter baumannii ATCC17978; assay: Minimal Inhibitory Concentration (MIC) assay; assay type: cell-based; conditions: read-out: MIC AB. ATCC17978
Protocol: Minimal Inhibitory Concentration Protocol (MIC) Assay:
Table 2 provides the in vitro potency of the compounds of present invention obtained against the strain Acinetobacter baumannii ATCC17978, which was assessed by an MIC (Minimal Inhibitory Concentration) assay as follows.
Test compounds were prepared from 10 mM DMSO stock solutions. The top dose was diluted from 10 mM to 2.5 mM by DMSO, followed by serial 2-fold 11 points dilutions in DMSO in a master plate (Greiner, Cat No: 651201). 2 μL compounds were transferred from the master plate into a new 96-well assay plate (Costar, 3599).
The growth medium […] Mueller Hinton Broth (CAMHIB) was prepared by adding 22 g powder (BD, 212322) in 1 L purified water, autoclaved, and supplemented with sterilized CaCl2 (20 mg per liter) and MgCl2 (10 mg per liter).
Vials of each of the test microorganisms were maintained frozen in the vapor phase of a liquid nitrogen freezer. Took out the bacterial strain ATCC 17978 from liquid nitrogen freezer, thawed it at room temperature, and diluted the bacterial in the CAMHB medium to achieve a final inoculum of 2×10^5 CFU/mL. 98 μL of the adjusted bacteria suspension was dispensed to the assay plate and pipetted 5 times.
Then the assay plates were incubated for 20 hours at 35±2° C. in ambient air with humidity. Following incubation, MIC […] value, the lowest concentration of drug that inhibits visible growth of the microorganism, was recorded by visual judgment of bacterial growth through magnification mirror of MIC reader, and the assay plates were photographed with Qcount system as image raw data. Meanwhile, the D600 of assay plates was recorded with SpectraMax Plus384 as GD raw data.

[2] = system: Acinetobacter baumannii ATCC17961; assay: Antimicrobial susceptibility testing: 90% growth inhibitory concentration (IC90) determination; assay type: cell-based; conditions: Acinetobacter baumannii, ATCC17961, 16 h, read-out: ATCC 17961 IC90
Procedure, shortened: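 Growth inhibition derived in log phase from OD600 kinetics (every 20 minutes, 16h, 35±2° C) of ATCC17961 in Iso-Sensitest medium, inoculum ~5×10^5 CFU/ml. Compounds tested as twofold series, 10 points (e.g. 50 to 0.097 μM final); IC90 and IC50 reported.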

[3] = Acinetobacter baumannii ATCC17978, CAMHB medium, 20 hours at 35±2° C., visual reading
[4] = 90% growth inhibitory concentration, Acinetobacter baumannii ATCC17961, Iso-Sensitest broth, OD 600 nm over 16 h
[5] = Acinetobacter baumannii, ATCC17978, 20 h

| Compound | MIC [1, 3] [µM] | IC90 [2, 4] [nM] | MIC [1, 5] [µM] | IC90 [2] [nM] |
| --- | --- | --- | --- | --- |
| COCCn1nc(C)c(-c2ccc(-c3cnc(C(=O)Nc4ccc(C(=O)N5CCN(C(=O)C6CC[N+](C)(C)CC6O)CC5)c(Cl)c4)n3C)c(F)c2F)c1C (stereo not shown) [Example D4, N-[3-chloro-4-[4-(3-hydroxy-1,1-dimethyl-piperidin-1-ium-4-carbonyl)piperazine-1-carbonyl]phenyl]-5-[2,3-difluoro-4-[1-(2-methoxyethyl)-3,5-dimethyl-pyrazol-4-yl]phenyl]-1-methyl-imidazole-2-carboxamide; formate] | 1.56 | 178 |  |  |
| COCCn1ncc(-c2ccc(-c3c(Cl)nc(C(=O)Nc4ccc(C(=O)N5CCN(C(=O)C6CC[N+](C)(C)CC6)CC5)c(Cl)c4)n3C)c(F)c2F)c1C [Example F53, 4-chloro-N-[3-chloro-4-[4-(1,1-dimethylpiperidin-1-ium-4-carbonyl)piperazine-1-carbonyl]phenyl]-5-[2,3-difluoro-4-[1-(2-methoxyethyl)-5-methyl-pyrazol-4-yl]phenyl]-1-methyl-imidazole-2-carboxamide; formate] | 0.6 | 110 |  |  |
| COCCn1cc(-c2ccc(-c3cnc(C(=O)Nc4ccc(C(=O)N5CCN(C(=O)C6CCNCC6O)CC5)c(C)c4)n3C)c(F)c2F)c(C)n1 (stereo not shown) [Example D22, 5-[2,3-difluoro-4-[1-(2-methoxyethyl)-3-methyl-pyrazol-4-yl]phenyl]-N-[4-[4-(3-hydroxypiperidine-4-carbonyl)piperazine-1-carbonyl]-3-methyl-phenyl]-1-methyl-imidazole-2-carboxamide; formic acid] |  |  | 1.1 (≈ 0.775 µg/mL) | 199 |
| Cc1nn(CC(=O)NC2CCC[N+](C)(C)C2)cc1-c1ccc(-c2cnc(C(=O)Nc3ccc(C(=O)N4CCN(C(=O)C5CC[N+](C)(C)CC5)CC4)c(Cl)c3)n2C)c(F)c1F (stereo not shown) [Example G24, N-[3-chloro-4-[4-(1,1-dimethylpiperidin-1-ium-4-carbonyl)piperazine-1-carbonyl]phenyl]-5-[4-[1-[2-[0,1-dimethylpiperidin-1-ium-3-yl)amino]-2-oxo-ethyl]-3-methyl-pyrazol-4-yl]-2,3-difluoro-phenyl]-1-methyl-imidazole-2-carboxamide; diformate] |  |  | 3.85 | 508 |
| COCCn1cc(-c2ccc(-c3cnc(C(=O)Nc4ccc(C(=O)N5CCN(C(=O)C6CC[N+](C)(C)CC6)CC5)c(Cl)c4)n3C)c(F)c2F)c(-c2ccccc2)n1 [Example F49, N-[3-chloro-4-[4-(1,1-dimethylpiperidin-1-ium-4-carbonyl)piperazine-1-carbonyl]phenyl]-5-[2,3-difluoro-4-[1-(2-methoxyethyl)-3-phenyl-pyrazol-4-yl]phenyl]-1-methyl-imidazole-2-carboxamide; formate] | 2.5 | 1520 |  |  |
| COCCn1nc(C)c(-c2ccc(-c3cnc(C(=O)Nc4ccc(C(=O)N5CCN(C(=O)C[N+]6(C)C[C@@H](O)[C@H](O)C6)CC5)c(Cl)c4)n3C)c(F)c2F)c1C (racemic) [Example C12, N-[3-chloro-4-[4-[2-[(3R,4R)-3,4-dihydroxy-1-methyl-pyrrolidin-1-ium-1-yl]acetyl]piperazine-1-carbonyl]phenyl]-5-[2,3-difluoro-4-[1-(2-methoxyethyl)-3,5-dimethyl-pyrazol-4-yl]phenyl]-1-methyl-imidazole-2-carboxamide; formate] | 1.2 | 153 |  |  |

Further lines, with some results ahead:

| MIC [1, 3] [µM] | IC90 [2, 4] [nM] | Compound | MIC [1, 5] [µM] | IC90 [2] [nM] |
| --- | --- | --- | --- | --- |
| 1.81 | 398 | COc1cccc(-c2[nH]ncc2-c2ccc(-c3cnc(C(=O)Nc4ccc(C(=O)N5CCN(C(=O)C6CC[N+](C)(C)CC6)CC5)c(Cl)c4)n3C)c(F)c2F)c1 [Example I3, N-[3-chloro-4-[4-(1,1-dimethylpiperidin-1-ium-4-carbonyl)piperazine-1-carbonyl]phenyl]-5-[2,3-difluoro-4-[5-(3-methoxyphenyl)-1H-pyrazol-4-yl]phenyl]-1-methyl-imidazole-2-carboxamide; formate] |  |  |
| 2.41 | 608 | COc1ccc(-c2[nH]ncc2-c2ccc(-c3cnc(C(=O)Nc4ccc(C(=O)N5CCN(C(=O)C6CC[N+](C)(C)CC6)CC5)c(Cl)c4)n3C)c(F)c2F)cc1 [Example I2, N-[3-chloro-4-[4-(1,1-dimethylpiperidin-1-ium-4-carbonyl)piperazine-1-carbonyl]phenyl]-5-[2,3-difluoro-4-[5-(4-methoxyphenyl)-1H-pyrazol-4-yl]phenyl]-1-methyl-imidazole-2-carboxamide; formate] |  |  |
| 1.23 | 58 | COCCn1cc(-c2ccc(-c3cnc(C(=O)Nc4ccc(C(=O)N5CCN(C(=O)C[N+]6(C)CCC(O)(CO)CC6)CC5)c(Cl)c4)n3C)c(F)c2F)c(C)n1 (stereo not shown) [Example D18, N-[3-chloro-4-[4-[2-[4-hydroxy-4-(hydroxymethyl)-1-methyl-piperidin-1-ium-1-yl]acetyl]piperazine-1-carbonyl]phenyl]-5-[2,3-difluoro-4-[1-(2-methoxyethyl)-3-methyl-pyrazol-4-yl]phenyl]-1-methyl-imidazole-2-carboxamide; formate] |  |  |
| 1.19 | 97 | COCCn1cc(-c2ccc(-c3cnc(C(=O)Nc4ccc(C(=O)N5CCN(C(=O)C6CC[N+](C)(C)CC6)CC5)c(Cl)c4)n3C)c(F)c2F)c(Cl)n1 [Example F30, N-[3-chloro-4-[4-(1,1-dimethylpiperidin-1-ium-4-carbonyl)piperazine-1-carbonyl]phenyl]-5-[4-[3-chloro-1-(2-methoxyethyl)pyrazol-4-yl]-2,3-difluoro-phenyl]-1-methyl-imidazole-2-carboxamide; formate] |  |  |
| 4.73 | 280 | COCCn1cc(-c2ccc(-c3cnc(C(=O)Nc4ccc(C(=O)N5CCN(C(=O)C6CC[N+](C)(C)CC6)CC5)c(Cl)c4)n3C)c(F)c2F)c(CF)n1 [Example F29, N-[3-chloro-4-[4-(1,1-dimethylpiperidin-1-ium-4-carbonyl)piperazine-1-carbonyl]phenyl]-5-[2,3-difluoro-4-[3-(fluoromethyl)-1-(2-methoxyethyl)pyrazol-4-yl]phenyl]-1-methyl-imidazole-2-carboxamide; chloride] |  |  |
